Like-named read-outs stand apart in the source and are kept apart here.
Key:
MRC5 cells = test: CCK8 cell viability assay; format: cell-based; conditions: 20 μM, 48 h
Protocol: (§1) Medical Research Council cell strain-5 (MRC5, ATCC, Manassas, VA, USA, Cat# CCL-171) was supplemented with 10% fetal bovine serum (GIBCO, Invitrogen, Carlsbad, CA, USA) in low-sugar DMEM medium (GIBCO, Invitrogen, Carlsbad, CA, USA) in an incubator containing 5% CO2 atmosphere at 37 °C.
The cells were seeded in 96-well plates for 24 h and treated with DST-3 (1.25, 2.5, 5, 10, 20 μM) at different concentrations for 48 h. The CCK8 kit (Beyotime, Shanghai, China) was used to test the cytotoxic effect of DST-3 on MRC5 cells. Medium solution of 10% CCK8 was added to each well and incubated at 37 °C for 2 h. Absorbance was measured at 450 nm (BioTek, Elx800, Winooski, VT, USA).

[1] = Pharmacokinetic study, single iv or oral administration in SD rats; format: in vivo; conditions: for concentration at 0.25 h / concentration at 0.5 h / concentration at 1 h / concentration at 2 h / concentration at 3 h / concentration at 4 h / concentration at 6 h / concentration at 8 h / concentration at 12 h / concentration at 24 h: n = 4; for MRT last: read-out: MRT0–t
Protocol: A total of 16 male SD rats, according to weight, were randomly divided into four groups (n = 4), a~d, as described in pharmacodynamics study: • (A) DST-3 intravenous injection of 6 mg/kg; • (B) DST-3 oral gavage of 60 mg/kg; • (C) CTS intravenous injection of 6 mg/kg; • (D) CTS oral gavage of 60 mg/kg.
Blood collection was performed in all rats at 0.25 h, 0.5 h, 1 h, 2 h, 3 h, 4 h, 6 h, 8 h, 12 h, and 24 h after administration.
The blank plasma for method validation was rapidly extracted from the main abdominal vein of SD rats. The sample for the pharmacokinetic study was obtained by taking 250 μL of blood from the orbit of SD rats. The blood was placed in a heparinized collection vessel, centrifuged at 3000 rpm for 10 min, and the upper plasma layer was taken.
A 100 μL sample was precisely measured, and 10 μL of loratadine working solution and 500 μL of ethyl acetate were added for liquid–liquid-extraction. The mixture was shaken for 1 min, centrifuged for 4 min at 12,000× g, and 400 μL of the upper organic phase was vacuum dried for 2 h. Then 100 μL of mobile phase (methanol-1% formic acid water (90:10, v/v)) was added, dissolved, vortexed for 1 min, and centrifuged at low temperature for 3 min at 12,000× g. The supernatant (80 μL) was placed in a sample bottle for HPLC-MS/MS analysis.
According to the non-compartmental model, the pharmacokinetic software DAS 2.0 was used to calculate the main pharmacokinetic parameters: maximum plasma concentration (Cmax), elimination half-life (t1/2), time to reach maximum plasma concentration (Tmax), mean residence time (MRT0–t), area under the plasma concentration curve from 0 to the last measured concentration (AUC0−t), AUC from 0 to infinity (AUC0–∞), apparent clearance rate (CL/F) and apparent distribution volume (V/F).

[2] = tested on: TGF-β1-stimulated MRC5 cells; test: TGF-β1-induced fibrosis in MRC5 (α-SMA, fibronectin, type I collagen; immunofluorescence and Western blot); format: cell-based; conditions: TGF-β1 5 ng/mL, 48 h
Protocol: as §1
MRC5 cells were fixed in 4% paraformaldehyde for 0.5 h, then permeated with 1% Triton X-100 (Sangon Biotech, Shanghai, China) for 10 min, and blocked with goat serum (BOSTER, Wuhan, China) for 1 h. The cells were then incubated with α-SMA or STAT3 (1:100 diluted) primary antibody overnight at 4 °C and secondary antibody at room temperature for 1 h. The nuclei were stained at room temperature with Hoechst 33,342 (1:100 diluted) for 10 min. Fluorescence images were captured using a laser scanning ultra-high resolution microscope (FV3000, Olympus Corporation, Tokyo, Japan).
MRC5 cells or lung tissues were washed with cold PBS and then lysed on ice using RIPA buffer (Beyotime Biotechnology, Shanghai, China) supplemented with protease and phosphatase inhibitors (Bimake, Boston, USA) for 0.5 h and centrifuged at 4 °C at 12,000× g for 15 min. […] (BCA protein Assay Kit, Pierce, Waltham, MA, USA) was used to determine protein concentration. […] Band strength was quantified by ImageJ software (version 1.53t, Bio-Rad, Rockford, IL, USA).

[3] = tested on: BLM-induced pulmonary fibrosis in C57BL/6 mice; test: BLM-induced pulmonary fibrosis model; format: in vivo; conditions: BLM 2 mg/kg; DST-3 15–60 mg/kg, CTS 30 mg/kg oral
Text: Sixty male Sprague-Dawley (SD) rats were individually weighed one day prior to administration and randomly assigned to six groups (n = 10 per group) using a stratified randomization method to ensure balanced average body weights across groups (weight range: 220–260 g; inter-group mean weight difference < 5 g). The vehicle used for […] administration of both CTS and DST-3 was 0.5% sodium carboxymethyl cellulose (CMC-Na) solution. A–F: • (A) Normal saline + CMC–Na; • (B) BLM + 0.5% CMC–Na; • (C) BLM + DST-3 15 mg/kg; • (D) BLM + DST-3 30 mg/kg; • (E) BLM + DST-3 60 mg/kg; • (F) BLM + CTS 30 mg/kg.
Pulmonary fibrosis was induced in groups B–F by tracheal infusion of bleomycin 2 mg/kg, and in group A by normal saline. To create a suspension for oral administration, all DST-3 or CTS were dissolved in 0.5% CMC-Na. […]
HYP was specifically detected in collagen as a posttranslational product of proline hydroxylation. […] In this study, the content of HYP in lung tissue was determined by alkaline hydrolyzation. […] Each sample was measured at 550 nm to detect the absorbance, and the HYP content was calculated according to the following formula: Hydroxproline content (μg/mg) =Measured OD value -Blank OD value/Standard OD value -Blank OD value× Stand content ×Lysate total volume (mL)/Organization wet weight (mg) […]

[4] = cited from earlier work
[5] = male, rat, plasma, iv 6 mg/kg, n = 4, mean ± SD
[6] = male, rat, plasma, oral 60 mg/kg
[7] = male, rat, plasma, po, ig 60 mg/kg, n = 4, mean ± SD

## C[C@H]1COC2=C1C(=O)C(=O)c1c2ccc2c1CCCC2(C)C [CTS, Cryptotanshinone]
MRC5 cells
  cell viability (cytotoxicity): significantly decreased
[1]; ig 60 mg/kg, n = 4, mean ± SD
  V/F: 1391 ± 382.0 L
[1]; iv 6 mg/kg, n = 4, mean ± SD
  V/F: 87.70 ± 59.30 L
[1]; male, rat, plasma, iv 6 mg/kg
  concentration at 0.25 h: 0.341 µg/mL
  concentration at 0.5 h: 0.167 µg/mL
  concentration at 1 h: 0.0917 µg/mL
  concentration at 2 h: 0.0739 µg/mL
  concentration at 3 h: 0.0628 µg/mL
  concentration at 4 h: 0.0457 µg/mL
  concentration at 6 h: 0.0299 µg/mL
  concentration at 8 h: 0.019 µg/mL
  concentration at 12 h: 0.0102 µg/mL
  concentration at 24 h: 0.0048 µg/mL
[1]; [5]
  AUC(0-inf): 0.671 ± 0.168 µg·h/mL
  AUC(0-t): 0.631 ± 0.157 µg·h/mL
  Cmax: 0.341 ± 0.0149 µg/mL
  half-life: 6.8 ± 3.7 h
  MRT last: 5.1 ± 0.3 h
[1]; [6]
  concentration at 0.25 h: 0.0117 µg/mL
  concentration at 0.5 h: 0.0136 µg/mL
  concentration at 1 h: 0.0189 µg/mL
  concentration at 2 h: 0.0163 µg/mL
  concentration at 3 h: 0.023 µg/mL
  concentration at 4 h: 0.0348 µg/mL
  concentration at 6 h: 0.0294 µg/mL
  concentration at 8 h: 0.031 µg/mL
  concentration at 12 h: 0.0175 µg/mL
  concentration at 24 h: 0.0089 µg/mL
[1]; male, rat, plasma, oral, ig 60 mg/kg vs iv 6 mg/kg, AUCig/AUCiv × 100%, read-out: absolute bioavailability
  bioavailability: 8.56%
[1]; [7]
  AUC(0-inf): 0.574 ± 0.051 µg·h/mL
  AUC(0-t): 0.458 ± 0.0228 µg·h/mL
  Cmax: 0.0395 ± 0.0068 µg/mL
  Tmax: 4.5 ± 1 h
  half-life: 9.3 ± 3 h
  MRT last: 15.7 ± 2.8 h
[2]
  expression of α-SMA and ECM proteins: downregulate the overexpression
[3]
  histopathology (HE and Masson staining): inflammatory infiltration and fibrosis severity: reduced inflammatory infiltration and fibrosis severity
[4]; CTS is a substrate of P-glycoprotein
  oral bioavailability: 2.05%
[4]; typically
  oral bioavailability: below 10%
